Reference: paper PMC10747430, “^99mTc-Labeled Cyclic Peptide Targeting PD-L1 as a Novel Nuclear Imaging Probe” (Pharmaceutics, 2023)

Key:
[1] = tested on: lesions and adenopathies with high metabolic activity; experiment: [18F]FDG PET/CT imaging in a patient; assay type: in vivo, human; design: key: Lesions and adenopathies positive for high metabolic activity were detected with [^18F]FDG (✓)
Excerpt: A person (weight 60 kg; height 168 cm) diagnosed with advanced plantar malignant melanoma was enrolled in this study (Ethics Committee: Protocol No. 2023-MN02). The trial was approved based on the microdose concept and proof-of-concept studies. In addition, the ethical standards of the INCan Hospital based on the Declaration of Helsinki regarding human experimentation and the GMP certificate granted to ININ by the Mexican Ministry of Health were taken into account. The patient signed an informed consent form after receiving detailed information about the purpose of the study, which could help decide on treatment and monitor disease progression.
Table 2 provides a detailed analysis of the molecular imaging findings obtained in the [^99mTc]Tc-iPD-L1 SPECT/CT and [^18F]FDG/PET studies.

Stability in human serum = assay type: in vitro ADME; details: human serum (diluted 5x), 37 °C, n = 3
Method: (§1) The stability of [^99mTc]Tc-iPD-L1 and [^99mTc]Tc-WL12 was evaluated by diluting the samples in human serum (5x). The radiopharmaceuticals (n = 3) were heated at 37 °C and analyzed at 0.5, 3, and 24 h for radiochemical purity by size-exclusion radio-HPLC (ProteinPak 300SW, Waters Corporation, Milford, CT, USA).
(§2) The radioactivity from [^99mTc]Tc-iPD-L1 bound to serum proteins was 1.3 ± 0.8% at 30 min, 3.2 ± 1.3% at 3 h, and 7.6 ± 1.9% at 24 h. High radiochemical stability (>90% at 24 h) was also observed. In the case of [^99mTc]Tc-WL12, protein binding was 1.0 ± 0.4% at 30 min, 3.3 ± 0.9% at 3 h, and 6.0 ± 1.3% at 24 h, with a radiochemical purity of >90% at 24 h. Therefore, there was no significant difference […] in protein binding and serum stability between the radiotracers.

Serum protein binding = assay type: in vitro ADME; details: human serum (diluted 5x), 37 °C, size-exclusion radio-HPLC, n = 3
Method: as §1, §2

[2] = target: T1, human recombinant PD-L1 protein (Homo sapiens, UniProt Q9NZQ7); experiment: Radio-SDS-PAGE molecular recognition by PD-L1 protein; assay type: binding; details: radiopeptide (1 mg/mL) incubated with PD-L1 (200 µg/mL) 30 min at 37 °C; 15% SDS-PAGE, radio-TLC scan
T1 construct: purchased FineTest P6857
T1 sequence (Q9NZQ7 19-290): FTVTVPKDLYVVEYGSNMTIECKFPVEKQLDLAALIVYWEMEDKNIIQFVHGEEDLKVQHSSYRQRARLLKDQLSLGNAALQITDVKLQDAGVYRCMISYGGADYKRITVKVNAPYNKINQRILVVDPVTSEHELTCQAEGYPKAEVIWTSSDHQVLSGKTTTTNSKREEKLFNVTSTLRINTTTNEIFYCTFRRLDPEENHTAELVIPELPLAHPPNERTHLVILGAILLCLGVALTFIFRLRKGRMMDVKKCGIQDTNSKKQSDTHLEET
Method: SDS-PAGE gel electrophoresis was performed. Radioactivity distribution was determined using a radio-TLC scanner (Mini-Gita, 60–150 keV, BGO-Crystal, window 25 × 2 mm, thickness 5 mm, resolution optimized for Tc-99m; RayTest, Munich, Germany) to detect [^99mTc]Tc-iPD-L1 and [^99mTc]Tc-WL12 binding to PD-L1 protein.
Briefly, ^99mTc-labeled WL12 and iPD-L1 solutions (100 µL) (1 mg/mL peptide) were incubated with human recombinant PD-L1 protein (100 µL) (200 µg/mL; FineTest; Cat: P6857) (radiopeptide-PD-L1 interaction) or human integrin αVβ3 protein (100 µL) (negative control; 200 µg/mL) (Chemicom, Merck; Burlington, MA, USA) (radiopeptide-integrin interaction) for 30 min at 37 °C, after which the samples were diluted with Laemmli sample buffer (containing 10% SDS, Tris-Cl 125 mM, pH = 6.8, 12.5% glycerol and 0.005% bromophenol blue after dye) to give final protein concentrations of 25 µg/mL. […] Finally, the radioactivity distribution on the gels was scanned using a radio-TLC detector to determine the percentage of [^99mTc]Tc-iPD-L1 or [^99mTc]Tc-WL12 radioactivity associated with proteins.
In vitro-specific recognition of [^99mTc]Tc-iPD-L1 and [^99mTc]Tc-WL12 by the PD-L1 protein was performed using a combination of radio-TLC and SDS-PAGE (radio-SDS-PAGE). […] Therefore, the radioactivity associated with free peptides is in the front of the gel plate (around 60–70 mm). […]

[3] = tested on: HCC827 lung cancer tumors; experiment: Biodistribution in mice bearing HCC827 tumors; assay type: in vivo, mouse; details: mice bearing HCC827 tumors
Method: All animal procedures were performed following the Institutional Animal Care and Use Committee requirements under an approved protocol (No. 09-2018-2022) and the Ethical Regulations for the Handling of Laboratory Animals (NOM-062-ZOO-1999). Male Nu/Nu (CINVESTAV, I.PN., Mexico City, Mexico) mice, 6–8 weeks of age, were maintained in an aseptic barrier environment. Mice were inoculated by subcutaneous injection of 1 × 10^6 HCC827 cells/0.1 mL PBS into the upper back. Injection sites were monitored periodically for tumor progression. On day ten after tumor cell inoculation, animals were injected with 18.5 MBq (50 µL) of [^99mTc]Tc-iPD-L1 or 18.5 MBq (50 µL) of [^99mTc]Tc-WL12 by tail vein injection. The animals were sacrificed at 1, 3, and 24 h (n = 3). Kidneys, lungs, heart, liver, spleen, pancreas, small intestine, stomach, muscle, and blood and tumor samples were dissected. Radioactivity was determined in a sodium iodide detector. The results were stated as % injected dose/g.
After 24 h, the activity in tumors was 3.21 ± 0.45 %ID/g ([^99mTc]Tc-WL12) and 5.65 ± 0.98 %ID/g ([^99mTc]Tc-iPD-L1). […] This behavior is related to the higher lipophilicity of [^99mTc]Tc-iPD-L1 compared to [^99mTc]Tc-WL12.

Compound | [18F]FDG Uptake ([1]; patient with plantar malignant melanoma, PET/CT, Mediastinal adenopathies level 4R, 8 and 10L up to 12 mm) | [18F]FDG Uptake ([1]; same patient, Adenopathies in the entire intramuscular tract of the left lower extremity up to 14 mm) | [18F]FDG Uptake ([1]; same patient, Adenopathies of the common, internal, external, and obturator iliac chains up to 26 mm) | [18F]FDG Uptake ([1]; same patient, Left femoral adenopathies of 12 mm) | [18F]FDG Uptake ([1]; same patient, Left inguinal adenopathies forming clusters of 29 mm) | [18F]FDG Uptake ([1]; same patient, Left popliteal hollow adenopathies up to 20 mm) | [18F]FDG Uptake ([1]; same patient, Left retrocrural adenopathy of 9 mm) | [18F]FDG Uptake ([1]; same patient, Liver, poorly defined hypodense images, the largest in segment 7) | [18F]FDG Uptake ([1]; same patient, Retroperitoneal paraaortic and intercavoaortic adenopathies of 14 mm) | [18F]FDG Uptake ([1]; same patient, exophytic lesion in the heel region of the left foot, 67 × 35 mm) | stability in human serum (Stability in human serum; 30 min, 3 h and 24 h, size-exclusion radio-HPLC) | remaining at 24 h (Stability in human serum; 24 h, size-exclusion radio-HPLC (ProteinPak 300SW), read-out: radiochemical stability / radiochemical purity in human serum at 24 h) [%] | radioactivity bound to serum proteins at 30 min (Serum protein binding; 30 min) [%] | radioactivity bound to serum proteins at 3 h (Serum protein binding; 3 h) [%] | radioactivity bound to serum proteins at 24 h (Serum protein binding; 24 h) [%] | radioactivity detected at the distance associated with the PD-L1 protein [2] [%] | activity in blood, liver, and kidney compared to [99mTc]Tc-WL12 [3]
OC[C@H]1OC(O)[C@H]([18F])[C@@H](O)[C@@H]1O (some centres unmarked) [[^18F]FDG] | ✓ | ✓ | ✓ | ✓ | ✓ | ✓ | ✓ | ✓ | ✓ | ✓ | – | – | – | – | – | – | –
CC(C)C[C@@H]1NC(=O)[C@H](CC(C)C)NC(=O)[C@H](Cc2c[nH]c3ccccc23)NC(=O)[C@H](CO)NC(=O)[C@H](Cc2c[nH]c3ccccc23)NC(=O)[C@@H]2CCCN2C(=O)[C@H](CC(C)C)NC(=O)[C@H](Cc2c[nH]cn2)NC(=O)[C@@H]2CCCN2C(=O)[C@H](CC(N)=O)NC(=O)[C@H](C)NC(=O)[C@H](Cc2ccc(O)cc2)NC(=O)[C@H](CS)NC(=O)[C@H](CCCCNC(=O)c2ccc(NN)nc2)NC1=O [[^99mTc]Tc-iPD-L1, metal not drawn] | – | – | – | – | – | – | – | – | – | – | remained stable | > 90 | 1.3 ± 0.8 | 3.2 ± 1.3 | 7.6 ± 1.9 | 30 | higher activity in blood, liver, and kidney
